In publication PMC7187334 (Clinical Pharmacology in Drug Development, 2019):
Read-outs that look alike come from different tables or passages of the source.

What was measured:
[1] = Phase 1 crossover study: rosuvastatin plasma pharmacokinetics; format: in vivo, human; conditions: for AUC(0-inf) / half-life / AUC(0-t) / Cmax: human, plasma, oral, 10 mg
Protocol: The primary objective was to evaluate the pharmacokinetics of oral rosuvastatin when administered alone and in combination with oral AZD5718. […] Each participant received 5 single-dose oral study treatments (A-E), with a minimum washout period of 7 days between each treatment period. Participants were randomly assigned to treatments in the order A, B, C, D, E or B, A, C, D, E. Treatments were: […] […] Participants fasted for at least 10 hours before treatment and for at least 4 hours after treatment. Participants receiving treatment E consumed a high-fat breakfast 30 minutes before treatment. Water was permitted as desired except within 1 hour of administration. […] Doses were taken with 240 mL of water. […] At a minimum, each analytical run included a calibration curve, a matrix blank, a control zero sample (matrix blank containing internal standard), a reagent blank, and duplicate quality control samples at 3 concentrations within the calibration range. […] Both assessments were well within the acceptance criteria. […] The pharmacokinetic analysis set for rosuvastatin included all participants who received both rosuvastatin treatments. […] Statistical analyses were performed by […] using SAS version 9.4. Rosuvastatin pharmacokinetics were analyzed using a mixed-effects model, with log-transformed AUC, AUC0-last, and Cmax as the response variables; treatment sequence, period, and treatment as fixed effects; and participant nested within treatment sequence as a random effect. […] LS mean differences and 90%CIs for the effect of formulation or food for log-transformed variables were back transformed to geometric mean ratios and presented as percentages with 90% CIs.

[2] = design: method as in PMID 15116058; conditions: coadministered with gemfibrozil; cited from earlier work
healthy volunteers = assay: Phase 1 crossover study: safety and tolerability (adverse events); format: in vivo, human; conditions: rosuvastatin 10 mg, fasted, n = 12
Protocol: Each participant received 5 single‐dose oral study treatments (A‐E), with a minimum washout period of 7 days between each treatment period.
The safety set included all participants who received treatment in the study and for whom any postdose safety data were available. Safety was assessed throughout the study by monitoring adverse events, vital signs (systolic and diastolic blood pressure, pulse rate, and body temperature), and electrocardiographic parameters and by conducting physical examinations and laboratory assessments (hematology, blood chemistry, and urinalysis).

[3] = tested on: patients with acute coronary syndrome; design: method as in PMID 20190281; conditions: cited from earlier work
[4] = tested on: patients with coronary artery disease; design: method as in earlier work; conditions: cited from earlier work
[5] = tested on: patients receiving statins; design: method as in PMID 28845751; conditions: cited from earlier work
[6] = tested on: patients with coronary artery disease; design: method as in PMID 28834471; conditions: cited from earlier work

CC(C)c1nc(N(C)S(C)(=O)=O)nc(-c2ccc(F)cc2)c1/C=C/[C@@H](O)C[C@@H](O)CC(=O)O [Rosuvastatin, rosuvastatin]
Rosuvastatin AUC0-inf (relative bioavailability), ratio of geometric LS means ([1]; coadministered with AZD5718 200 mg vs alone, 90% CI 86%-116%): 100%
Rosuvastatin AUC0-last, ratio of geometric LS means ([1]; coadministered with AZD5718 200 mg vs alone, 90% CI 87%-106%): 96%
Rosuvastatin Cmax, ratio of geometric LS means ([1]; coadministered with AZD5718 200 mg vs alone, 90% CI 107%-146%): 125%
Increase in rosuvastatin Cmax ([1]; coadministration with AZD5718 tablets vs alone): about 25%
AUC(0-inf) ([1]; rosuvastatin 10 mg alone, fasted, n = 9, read-out: Rosuvastatin AUC0-inf, arithmetic mean (SD)): 45.3 ng·h/mL
AUC(0-inf) ([1]; rosuvastatin 10 mg alone, fasted, n = 9, read-out: Rosuvastatin AUC0-inf, geometric mean (%CV)): 41 ng·h/mL
half-life ([1]; rosuvastatin 10 mg alone, fasted, n = 9, read-out: Rosuvastatin t1/2 lambda z, arithmetic mean (SD) (converted)): 16 h
half-life ([1]; rosuvastatin 10 mg alone, fasted, n = 9, read-out: Rosuvastatin t1/2 lambda z, geometric mean (%CV) (converted)): 14.7 h
AUC(0-t) ([1]; rosuvastatin 10 mg alone, fasted, n = 12, read-out: Rosuvastatin AUC0-last, arithmetic mean (SD)): 54.2 ng·h/mL
AUC(0-t) ([1]; rosuvastatin 10 mg alone, fasted, n = 12, read-out: Rosuvastatin AUC0-last, geometric mean (%CV)): 45.3 ng·h/mL
Cmax ([1]; rosuvastatin 10 mg alone, fasted, n = 12, read-out: Rosuvastatin Cmax, arithmetic mean (SD)): 5.56 ng/mL
Cmax ([1]; rosuvastatin 10 mg alone, fasted, n = 12, read-out: Rosuvastatin Cmax, geometric mean (%CV)): 4.59 ng/mL
AUC(0-inf) ([1]; rosuvastatin 10 mg plus AZD5718 200-mg tablet, fasted, n = 10, read-out: Rosuvastatin AUC0-inf, arithmetic mean (SD)): 56.9 ng·h/mL
AUC(0-inf) ([1]; rosuvastatin 10 mg plus AZD5718 200-mg tablet, fasted, n = 10, read-out: Rosuvastatin AUC0-inf, geometric mean (%CV)): 50.5 ng·h/mL
half-life ([1]; rosuvastatin 10 mg plus AZD5718 200-mg tablet, fasted, n = 10, read-out: Rosuvastatin t1/2 lambda z, arithmetic mean (SD) (converted)): 16.4 h
half-life ([1]; rosuvastatin 10 mg plus AZD5718 200-mg tablet, fasted, n = 10, read-out: Rosuvastatin t1/2 lambda z, geometric mean (%CV) (converted)): 16.5 h
AUC(0-t) ([1]; rosuvastatin 10 mg plus AZD5718 200-mg tablet, fasted, read-out: Rosuvastatin AUC0-last, arithmetic mean (SD)): 49.4 ng·h/mL
AUC(0-t) ([1]; rosuvastatin 10 mg plus AZD5718 200-mg tablet, fasted, read-out: Rosuvastatin AUC0-last, geometric mean (%CV)): 43.5 ng·h/mL
Cmax ([1]; rosuvastatin 10 mg plus AZD5718 200-mg tablet, fasted, read-out: Rosuvastatin Cmax, arithmetic mean (SD)): 6.74 ng/mL
Cmax ([1]; rosuvastatin 10 mg plus AZD5718 200-mg tablet, fasted, read-out: Rosuvastatin Cmax, geometric mean (%CV)): 5.74 ng/mL
Rosuvastatin tmax, median (range) ([1]; rosuvastatin 10 mg alone, fasted, n = 12): 5.00 (0.50‐6.00) h
Increase in rosuvastatin AUC [2]: 2 fold
Increase in rosuvastatin Cmax [2]: 2 fold
Participants with influenza-like illness (healthy volunteers): 0 n (%)

C[C@H](C#Cc1ccc(Cc2ccc(F)cc2)s1)N(O)C(N)=O [VIA‐2291]
Left ventricular ejection fraction ([3]; dose-dependent): improved left ventricular ejection fraction
Appearance of new coronary lesions ([3]; phase 2): prevented the appearance of new coronary lesions
Leukotriene B4 production ([3]; phase 2): reduced leukotriene B4 production
Noncalcified plaque volume ([3]; phase 2): lowered noncalcified plaque volume

CC(c1cc2ccccc2s1)N(O)C(N)=O (centres unmarked) [zileuton]
Flow-mediated dilation in the brachial artery [4]: improved flow‐mediated dilation
Leukotriene production [4]: reduced leukotriene production

canakinumab: anti-interleukin-1β antibody
Hazard ratio, recurrent cardiovascular events vs placebo ([5]; P = .021): 0.85
Rate of recurrent cardiovascular events ([5]; canakinumab together with statins, placebo and statins 4.50): 3.90 events per 100 person‐years

B1: evolocumab: proprotein convertase subtilisin/kexin type 9-neutralizing antibody (antibody, chains of the INN, looked up, V domains shown)
VH: EVQLVQSGAEVKKPGASVKVSCKASGYTLTSYGISWVRQAPGQGLEWMGWVSFYNGNTNYAQKLQGRGTMTTDPSTSTAYMELRSLRSDDTAVYYCARGYGMDVWGQGTTVTVSS
VL: ESALTQPASVSGSPGQSITISCTGTSSDVGGYNSVSWYQQHPGKAPKLMIYEVSNRPSGVSNRFSGSKSGNTASLTISGLQAEDEADYYCNSYTSTSMVFGGGTKLTVL
Hazard ratio, recurrent cardiovascular events vs placebo ([6]; P < .001): 0.85
LDL cholesterol level, median ([6]; evolocumab together with statins): 30 mg/dL
Rate of recurrent cardiovascular events ([6]; evolocumab together with statins, placebo 11.3%): 9.8%
